Laboratory results: US9131690B2, “Macrocyclic picolinamides as fungicides” (Dow AgroSciences LLC, priority 2012, dated 2015)
Read-outs that look alike come from different tables or passages of the source.

Legend:
[1] = tested on: Puccinia triticina. Synonym: Puccinia recondite f. sp. tritici; assay: Fungicidal activity: Wheat Brown Rust (PUCCRT), wheat plants variety Yuma; assay type: in vivo; parameters: key to PUCCRT 3DC Disease Control: A: 50-100; B: More than 0-Less than 50; C: Not Tested; D: No activity noticed in this bioassay; conditions: for pest or weed control at 100 ppm: Puccinia triticina; for PUCCRT 3DC Disease Control: 100 ppm
Protocol: Evaluation of Fungicidal Activity: Wheat Brown Rust (Puccinia triticina. Synonym: Puccinia recondite f. sp. tritici; Bayer Code PUCCRT) Wheat plants (variety Yuma) were grown from seed in a greenhouse in 50% mineral soil/50% soil-less Metro mix until the first leaf was fully emerged, with 7-10 seedlings per pot. These plants were inoculated with an aqueous spore suspension of Puccinia recondite f. sp. tritici either prior to or after fungicide treatments. After inoculation the plants were kept in 100% relative humidity overnight to permit spores to germinate and infect the leaf. The plants were then transferred to a greenhouse set at 24 C for disease to develop.

[2] = tested on: Mycosphaerella graminicola; Anamorph: Septoria tritici; assay: Fungicidal activity: Leaf Blotch of Wheat (SEPTTR), wheat plants variety Yuma; assay type: in vivo; conditions: Zymoseptoria tritici
Protocol: Evaluation of Fungicidal Activity: Leaf Blotch of Wheat (Mycosphaerella graminicola; Anamorph: Septoria tritici; Bayer Code […]) Wheat plants (variety Yuma) were grown from seed in a greenhouse in 50% mineral soil/50% soil-less Metro mix until the first leaf was fully emerged, with 7-10 seedlings per pot. These plants were inoculated with an aqueous spore suspension of Septoria tritici either prior to or after fungicide treatments. After inoculation the plants were kept in 100% relative humidity (one day in a dark dew chamber followed by two to three days in a lighted dew chamber) to permit spores to germinate and infect the leaf. The plants were then transferred to a greenhouse at 20° C. for disease to develop.

[3] = 24 h, 1 Day Protectant, read-out: PUCCRT 1DP Disease Control
[4] = 72 h, 3 Day Curative, read-out: PUCCRT 3DC Disease Control
[5] = 24 h, 1 Day Protectant, read-out: SEPTTR 1DP Disease Control
[6] = 72 h, 3 Day Curative, read-out: SEPTTR 3DC Disease Control

Structure (SMILES)	pest or weed control at 100 ppm [1, 3] [%]	pest or weed control at 100 ppm [1, 4] [%]	melting point [°C]	pest or weed control at 100 ppm [2, 5] [%]	pest or weed control at 100 ppm [2, 6] [%]	PUCCRT 3DC Disease Control ([1]; 3 Day Curative)
COc1ccnc(C(=O)N[C@H]2COC(=O)[C@H](Cc3ccc(F)cc3)[C@@H](OC(=O)C(C)C)[C@H](C)OC2=O)c1O [Compound 1, (3S,6S,7R,8R)-8-(4-fluorobenzyl)-3-(3-hydroxy-4-methoxypicolinamido)-6-methyl-4,9-dioxo-1,5-dioxonan-7-yl isobutyrate]	50 to 100	0 to 50	208 to 210	50 to 100	0 to 50	
COc1ccnc(C(=O)N[C@H]2COC(=O)[C@H](Cc3cccnc3)[C@@H](OC(=O)C(C)C)[C@H](C)OC2=O)c1O [Compound 2]	50 to 100	50 to 100	148 to 155	50 to 100	50 to 100	
COc1ccnc(C(=O)N[C@H]2COC(=O)[C@H](Cc3ccccn3)[C@@H](OC(=O)C(C)C)[C@H](C)OC2=O)c1O [Compound 3]	50 to 100	50 to 100	92 to 95	50 to 100	50 to 100	
COc1ccnc(C(=O)N[C@H]2COC(=O)[C@H](Cc3ccc(C)cc3)[C@@H](OC(=O)C(C)C)[C@H](C)OC2=O)c1O [Compound 4]	50 to 100	0 to 50	175 to 179	50 to 100	0 to 50	
COc1ccnc(C(=O)N[C@H]2COC(=O)[C@H](Cc3ccncc3)[C@@H](OC(=O)C(C)C)[C@H](C)OC2=O)c1O [Compound 5]	50 to 100	50 to 100	151 to 156	50 to 100	50 to 100	
COc1ccnc(C(=O)N[C@H]2COC(=O)[C@H](Cc3ccc(C(F)(F)F)cc3)[C@@H](OC(=O)C(C)C)[C@H](C)OC2=O)c1O [Compound 6]	50 to 100		222 to 226	50 to 100	0 to 50	D
COc1ccnc(C(=O)N[C@H]2COC(=O)[C@H](Cc3ccc(Cl)nc3)[C@@H](OC(=O)C(C)C)[C@H](C)OC2=O)c1O [Compound 7]	50 to 100	50 to 100	148 to 152	0 to 50	0 to 50	
COc1ccc(C[C@H]2C(=O)OC[C@H](NC(=O)c3nccc(OC)c3O)C(=O)O[C@@H](C)[C@@H]2OC(=O)C(C)C)cc1 [Compound 8]	50 to 100	50 to 100		50 to 100	0 to 50	
COc1ccnc(C(=O)N[C@H]2COC(=O)[C@H](Cc3ccc(Cl)cc3)[C@@H](OC(=O)C(C)C)[C@H](C)OC2=O)c1O [Compound 9]	50 to 100	50 to 100	192 to 194	50 to 100	0 to 50	
COc1ccnc(C(=O)N[C@H]2COC(=O)[C@H](Cc3ccc(F)cc3F)[C@@H](OC(=O)C(C)C)[C@H](C)OC2=O)c1O [Compound 10]	50 to 100	50 to 100	184 to 185	50 to 100	0 to 50	
COc1ccnc(C(=O)N[C@H]2COC(=O)[C@H](CI)[C@@H](OC(=O)C(C)C)[C@H](C)OC2=O)c1O [Compound 11]	50 to 100	50 to 100	186 to 191	50 to 100	0 to 50	
COc1ccnc(C(=O)N[C@H]2COC(=O)[C@H](Cc3ccc(-c4ccccc4)cc3)[C@@H](OC(=O)C(C)C)[C@H](C)OC2=O)c1O [Compound 12]	50 to 100	0 to 50	214 to 216	50 to 100	0 to 50	
COc1ccnc(C(=O)N[C@H]2COC(=O)[C@H](Cc3cccc(-c4ccccc4)c3)[C@@H](OC(=O)C(C)C)[C@H](C)OC2=O)c1O [Compound 13]	50 to 100	0 to 50	182 to 186	50 to 100	0 to 50	
COc1ccnc(C(=O)N[C@H]2COC(=O)[C@H](Cc3ccc(F)cc3)[C@@H](OC(=O)C(C)C)[C@H](C)OC2=O)c1OCOC(=O)C(C)C [Compound 20]	50 to 100	50 to 100		50 to 100	50 to 100	
COc1ccnc(C(=O)N[C@H]2COC(=O)[C@H](Cc3ccc(F)cc3F)[C@@H](OC(=O)C(C)C)[C@H](C)OC2=O)c1OCOC(=O)C(C)C [Compound 21]	50 to 100	50 to 100		50 to 100	50 to 100	
COCC[C@H]1C(=O)OC[C@H](NC(=O)c2nccc(OC)c2OCOC(=O)C(C)C)C(=O)O[C@@H](C)[C@@H]1OC(=O)C(C)C [Compound 28]	50 to 100	50 to 100		50 to 100	50 to 100	
COc1ccnc(C(=O)N[C@H]2COC(=O)[C@H](CCOCc3ccccc3)[C@@H](OC(=O)C(C)C)[C@H](C)OC2=O)c1OCOC(=O)C(C)C [Compound 29]	50 to 100	50 to 100		50 to 100	0 to 50	
COc1ccnc(C(=O)N[C@H]2COC(=O)[C@H](CC(=O)OC(C)(C)C)[C@@H](OC(=O)C(C)C)[C@H](C)OC2=O)c1OCOC(=O)C(C)C [Compound 30]	50 to 100	50 to 100		50 to 100	50 to 100	
COc1ccnc(C(=O)N[C@H]2COC(=O)[C@H](CCc3cccnc3)[C@@H](OC(=O)C(C)C)[C@H](C)OC2=O)c1OCOC(=O)C(C)C [Compound 31]	50 to 100	0 to 50		0 to 50	0 to 50	
COc1ccnc(C(=O)N[C@H]2COC(=O)[C@H](CCc3ccccc3)[C@@H](OC(=O)C(C)C)[C@H](C)OC2=O)c1OCOC(=O)C(C)C [Compound 32]	50 to 100	50 to 100		50 to 100	50 to 100	
CCCCCCC[C@H]1C(=O)OC[C@H](NC(=O)c2nccc(OC)c2OCOC(=O)C(C)C)C(=O)O[C@@H](C)[C@@H]1OC(=O)C(C)C [Compound 33]	50 to 100	50 to 100		50 to 100	50 to 100	
CCC[C@H]1C(=O)OC[C@H](NC(=O)c2nccc(OC)c2OCOC(=O)C(C)C)C(=O)O[C@@H](C)[C@@H]1OC(=O)C(C)C [Compound 34]	50 to 100	50 to 100		50 to 100	50 to 100	
COc1ccnc(C(=O)N[C@H]2COC(=O)[C@H](CCOC(=O)C(C)C)[C@@H](OC(=O)C(C)C)[C@H](C)OC2=O)c1O [Compound 36]	50 to 100			50 to 100	0 to 50	D
COc1ccnc(C(=O)N[C@H]2COC(=O)[C@H](CCOC(=O)C(C)(C)C)[C@@H](OC(=O)C(C)C)[C@H](C)OC2=O)c1O [Compound 37]	50 to 100	0 to 50		50 to 100	0 to 50	
COc1ccnc(C(=O)N[C@H]2COC(=O)[C@H](CCOC(=O)c3cc(OC)c(OC)c(OC)c3)[C@@H](OC(=O)C(C)C)[C@H](C)OC2=O)c1O [Compound 41]	50 to 100			0 to 50	0 to 50	D
COCC[C@H]1C(=O)OC[C@H](NC(=O)c2nccc(OC)c2O)C(=O)O[C@@H](C)[C@@H]1OC(=O)C(C)C [Compound 44, (3S,6S,7R,8R)-3-(3-hydroxy-4-methoxypicolinamido)-8-(2-methoxyethyl)-6-methyl-4,9-dioxo-1,5-dioxonan-7-yl isobutyrate]	50 to 100	50 to 100		50 to 100	50 to 100	
COc1ccnc(C(=O)N[C@H]2COC(=O)[C@H](CCC3CCCCC3)[C@@H](OC(=O)C(C)C)[C@H](C)OC2=O)c1O [Compound 62]	50 to 100	0 to 50		50 to 100	0 to 50	
